Experimental data taken from US6737383B1, “Herbicidal oxadiazolidines” (priority 1999, dated 2004).

Assays:
[1] = system: blackgrass; experiment: Test B pre/postemergence blackgrass; format: in vivo, Alopecurus myosuroides; conditions: for Blackgrass plant response rating: scale of 0 to 10 where 0 is no effect and 10 is complete control
Method in brief: (§1)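 Response is a visual 0-to-10 score relative to untreated plants, where 0 means no effect and 10 means complete control, taken twelve to sixteen days after application. Treatments went onto soil at planting and onto foliage of 1- to 4-leaf plants, using a surfactant-containing non-phytotoxic solvent.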

[2] = system: surinam grass; experiment: Test B pre/postemergence surinam grass; format: in vivo, Brachiaria decumbens; conditions: for B. signalgrass plant response rating: scale of 0 to 10 where 0 is no effect and 10 is complete control
Method in brief: as §1

[3] = system: cocklebur; experiment: Test B pre/postemergence cocklebur; format: in vivo, Xanthium strumarium; conditions: for Cocklebur plant response rating: scale of 0 to 10 where 0 is no effect and 10 is complete control
Method in brief: as §1

[4] = system: corn; experiment: Test B pre/postemergence corn; format: in vivo, Zea mays; conditions: for Corn plant response rating: scale of 0 to 10 where 0 is no effect and 10 is complete control
Method in brief: as §1

[5] = system: crabgrass; experiment: Test B pre/postemergence crabgrass; format: in vivo, Digitaria sanguinalis; conditions: for Crabgrass plant response rating: scale of 0 to 10 where 0 is no effect and 10 is complete control
Method in brief: as §1

[6] = system: giant foxtail; experiment: Test B pre/postemergence giant foxtail; format: in vivo, Setaria faberii; conditions: for Giant foxtail plant response rating: scale of 0 to 10 where 0 is no effect and 10 is complete control
Method in brief: as §1

[7] = system: morningglory; experiment: Test B pre/postemergence morningglory; format: in vivo, Ipomoea hederacea; conditions: for Morningglory plant response rating: scale of 0 to 10 where 0 is no effect and 10 is complete control
Method in brief: as §1

[8] = system: pigweed; experiment: Test B pre/postemergence pigweed; format: in vivo, Amaranthus retroflexus; conditions: for Redroot pigweed plant response rating: scale of 0 to 10 where 0 is no effect and 10 is complete control
Method in brief: as §1

[9] = system: rape; experiment: Test B pre/postemergence rape; format: in vivo, Brassica napus; conditions: for Rape plant response rating: scale of 0 to 10 where 0 is no effect and 10 is complete control
Method in brief: as §1

[10] = system: sugar beet; experiment: Test B pre/postemergence sugar beet; format: in vivo, Beta vulgaris; conditions: for Sugarbeets plant response rating: scale of 0 to 10 where 0 is no effect and 10 is complete control
Method in brief: as §1

[11] = system: velvetleaf; experiment: Test B pre/postemergence velvetleaf; format: in vivo, Abutilon theophrasti; conditions: for Velvetleaf plant response rating: scale of 0 to 10 where 0 is no effect and 10 is complete control
Method in brief: as §1

[12] = system: wheat; experiment: Test B pre/postemergence wheat; format: in vivo, Triticum aestivum; conditions: for Wheat plant response rating: scale of 0 to 10 where 0 is no effect and 10 is complete control
Method in brief: as §1

[13] = system: purple nutsedge; experiment: Test B pre/postemergence purple nutsedge; format: in vivo, Cyperus rotundus; conditions: for Nutsedge plant response rating: scale of 0 to 10 where 0 is no effect and 10 is complete control
Method in brief: as §1

[14] = system: rice; experiment: Test B flood test rice; format: in vivo, Oryza sativa
Method in brief: (§2)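 Each value is a visual injury score relative to controls, with 10 meaning complete control and 0 no effect. Evaluation took place twelve to sixteen days after the 2-leaf-stage plants were treated and kept in the greenhouse.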

[15] = system: smallflower flatsedge; experiment: Test B flood test smallflower flatsedge; format: in vivo, Cyperus difformis
Method in brief: as §2

[16] = system: duck salad; experiment: Test B flood test duck salad; format: in vivo, Heteranthera limosa
Method in brief: as §2

[17] = Postemergence, Rate 125 g/ha, scale 0 to 10, 0 is no effect, 10 is complete control
[18] = Postemergence, Rate 250 g/ha, scale 0 to 10, 0 is no effect, 10 is complete control
[19] = Preemergence, Rate 62 g/ha, scale 0 to 10 (0 no effect, 10 complete control)
[20] = Rate 500 g/ha, Postemergence, scale 0 to 10, 0 no effect, 10 complete control
[21] = Postemergence (flood test), Rate 125 g/ha, scale 0 to 10, 0 is no effect, 10 is complete control
[22] = Rate 62 g/ha, Postemergence (flood test species), scale of 0 to 10 where 0 is no effect and 10 is complete control
[23] = Rate 62 g/ha, flood test species, Pre-emergence, visual evaluation after twelve to sixteen days
[24] = Rate 125 g/ha, Pre-emergence, flood test species, scale 0 to 10 where 0 is no effect and 10 is complete control
[25] = Rate 250 g/ha, Pre-emergence, flood-test species, scale 0 to 10, 0 is no effect, 10 is complete control
[26] = Rate 500 g/ha, listed under Postemergence (flood test species), scale 0 to 10, 0 no effect, 10 complete control
[27] = Rate 500 g/ha, Pre-emergence, flood test species, scale 0 to 10 (0 no effect, 10 complete control)
[28] = flood test species, listed under Postemergence, Rate 250 g/ha, scale 0 to 10, 0 is no effect, 10 is complete control

Structure (SMILES): CC1CC1n1c(=O)on(C(=O)N(c2ccccc2)C(C)C)c1=O (stereo not drawn) [Compound 370]
- Plant response rating, Blackgrass [1, 17]: 4
- Plant response rating, Blackgrass [1, 18]: 4
- Plant response rating, Blackgrass [1, 19]: 6
- Blackgrass plant response rating (0 to 10 scale) ([1]; Preemergence, Rate 125 g/ha): 8
- Blackgrass plant response rating ([1]; Preemergence, Rate 250 g/ha): 9
- Blackgrass plant response rating ([1]; Preemergence, Rate 500 g/ha): 10
- Blackgrass plant response rating ([1]; Rate 62 g/ha, Postemergence): 2
- Plant response rating, Blackgrass [1, 20]: 5
- Plant response rating, B. signalgrass [2, 17]: 2
- Plant response rating, B. signalgrass [2, 18]: 4
- Plant response rating, B. signalgrass [2, 19]: 0
- B. signalgrass plant response rating (0 to 10 scale, 0 is no effect, 10 is complete control) ([2]; Preemergence, Rate 125 g/ha): 0
- B. signalgrass plant response rating ([2]; Preemergence, Rate 250 g/ha): 2
- B. signalgrass plant response rating ([2]; Preemergence, Rate 500 g/ha): 5
- B. signalgrass plant response rating ([2]; Rate 62 g/ha, Postemergence): 0
- Plant response rating, B. signalgrass [2, 20]: 6
- Plant response rating, Cocklebur [3, 17]: 0
- Plant response rating, Cocklebur [3, 18]: 2
- Cocklebur plant response rating (0 to 10 scale) ([3]; Preemergence, Rate 125 g/ha): 0
- Cocklebur plant response rating ([3]; Preemergence, Rate 250 g/ha): 0
- Cocklebur plant response rating ([3]; Preemergence, Rate 500 g/ha): 10
- Cocklebur plant response rating ([3]; Rate 62 g/ha, Postemergence): 0
- Plant response rating, Cocklebur [3, 20]: 3
- Plant response rating, Corn [4, 17]: 0
- Plant response rating, Corn [4, 18]: 0
- Plant response rating, Corn [4, 19]: 0
- Corn plant response rating (0 to 10 scale) ([4]; Preemergence, Rate 125 g/ha): 2
- Corn plant response rating ([4]; Preemergence, Rate 250 g/ha): 4
- Corn plant response rating ([4]; Preemergence, Rate 500 g/ha): 9
- Corn plant response rating ([4]; Rate 62 g/ha, Postemergence): 0
- Plant response rating, Corn [4, 20]: 5
- Plant response rating, Crabgrass [5, 17]: 7
- Plant response rating, Crabgrass [5, 18]: 7
- Plant response rating, Crabgrass [5, 19]: 7
- Crabgrass plant response rating (0 to 10 scale) ([5]; Preemergence, Rate 125 g/ha): 8
- Crabgrass plant response rating ([5]; Preemergence, Rate 250 g/ha): 9
- Crabgrass plant response rating ([5]; Preemergence, Rate 500 g/ha): 10
- Crabgrass plant response rating ([5]; Rate 62 g/ha, Postemergence): 3
- Plant response rating, Crabgrass [5, 20]: 9
- Plant response rating, Giant foxtail [6, 17]: 8
- Plant response rating, Giant foxtail [6, 18]: 8
- Plant response rating, Giant foxtail [6, 19]: 9
- Giant foxtail plant response rating (0 to 10 scale) ([6]; Preemergence, Rate 125 g/ha): 10
- Giant foxtail plant response rating ([6]; Preemergence, Rate 250 g/ha): 10
- Giant foxtail plant response rating ([6]; Preemergence, Rate 500 g/ha): 10
- Giant foxtail plant response rating ([6]; Rate 62 g/ha, Postemergence): 6
- Plant response rating, Giant foxtail [6, 20]: 9
- Plant response rating, Morningglory [7, 17]: 10
- Plant response rating, Morningglory [7, 18]: 10
- Plant response rating, Morningglory [7, 19]: 0
- Morningglory plant response rating (0 to 10 scale) ([7]; Preemergence, Rate 125 g/ha): 0
- Morningglory plant response rating ([7]; Preemergence, Rate 250 g/ha): 2
- Morningglory plant response rating ([7]; Preemergence, Rate 500 g/ha): 3
- Morningglory plant response rating ([7]; Rate 62 g/ha, Postemergence): 10
- Plant response rating, Morningglory [7, 20]: 10
- Plant response rating, Redroot pigweed [8, 17]: 0
- Plant response rating, Redroot pigweed [8, 18]: 0
- Plant response rating, Redroot pigweed [8, 19]: 5
- Redroot pigweed plant response rating (0 to 10 scale) ([8]; Preemergence, Rate 125 g/ha): 7
- Redroot pigweed plant response rating ([8]; Preemergence, Rate 250 g/ha): 10
- Redroot pigweed plant response rating ([8]; Preemergence, Rate 500 g/ha): 10
- Redroot pigweed plant response rating ([8]; Rate 62 g/ha, Postemergence): 0
- Plant response rating, Redroot pigweed [8, 20]: 3
- Plant response rating, Rape [9, 17]: 0
- Plant response rating, Rape [9, 18]: 2
- Plant response rating, Rape [9, 19]: 0
- Rape plant response rating (0 to 10 scale) ([9]; Preemergence, Rate 125 g/ha): 0
- Rape plant response rating ([9]; Preemergence, Rate 250 g/ha): 6
- Rape plant response rating ([9]; Preemergence, Rate 500 g/ha): 10
- Rape plant response rating ([9]; Rate 62 g/ha, Postemergence): 0
- Plant response rating, Rape [9, 20]: 3
- Plant response rating, Sugarbeets [10, 17]: 0
- Plant response rating, Sugarbeets [10, 18]: 0
- Plant response rating, Sugarbeets [10, 19]: 2
- Sugarbeets plant response rating (0 to 10 scale) ([10]; Preemergence, Rate 125 g/ha): 3
- Sugarbeets plant response rating ([10]; Preemergence, Rate 250 g/ha): 5
- Sugarbeets plant response rating ([10]; Rate 62 g/ha, Postemergence): 0
- Plant response rating, Sugarbeets [10, 20]: 0
- Plant response rating, Velvetleaf [11, 17]: 0
- Plant response rating, Velvetleaf [11, 18]: 0
- Plant response rating, Velvetleaf [11, 19]: 2
- Velvetleaf plant response rating (0 to 10 scale) ([11]; Preemergence, Rate 125 g/ha): 4
- Velvetleaf plant response rating ([11]; Preemergence, Rate 250 g/ha): 5
- Velvetleaf plant response rating ([11]; Preemergence, Rate 500 g/ha): 6
- Velvetleaf plant response rating ([11]; Rate 62 g/ha, Postemergence): 0
- Plant response rating, Velvetleaf [11, 20]: 4
- Plant response rating, Wheat [12, 17]: 0
- Plant response rating, Wheat [12, 18]: 0
- Plant response rating, Wheat [12, 19]: 0
- Wheat plant response rating (0 to 10 scale) ([12]; Preemergence, Rate 125 g/ha): 0
- Wheat plant response rating ([12]; Preemergence, Rate 250 g/ha): 2
- Wheat plant response rating ([12]; Preemergence, Rate 500 g/ha): 7
- Wheat plant response rating ([12]; Rate 62 g/ha, Postemergence): 0
- Plant response rating, Wheat [12, 20]: 3
- Plant response rating, Nutsedge [13, 17]: 0
- Plant response rating, Nutsedge [13, 18]: 0
- Plant response rating, Nutsedge [13, 19]: 0
- Nutsedge plant response rating (0 to 10 scale) ([13]; Preemergence, Rate 125 g/ha): 0
- Nutsedge plant response rating ([13]; Preemergence, Rate 250 g/ha): 5
- Nutsedge plant response rating ([13]; Preemergence, Rate 500 g/ha): 10
- Nutsedge plant response rating ([13]; Rate 62 g/ha, Postemergence): 0
- Plant response rating, Nutsedge [13, 20]: 5
- Plant response rating, Rice [14, 21]: 0
- Rice plant response rating [14, 22]: 0
- Plant response rating, Rice (0 to 10 scale, 0 is no effect, 10 is complete control) [14, 23]: 0
- Rice plant response rating [14, 24]: 0
- Rice plant response rating [14, 25]: 0
- Plant response rating, Rice [14, 26]: 2
- Rice plant response rating [14, 27]: 0
- Plant response rating, Rice [14, 28]: 2
- Plant response rating, S. Flatsedge [15, 21]: 3
- S. Flatsedge plant response rating [15, 22]: 2
- Plant response rating, S. Flatsedge (0 to 10 scale, 0 is no effect, 10 is complete control) [15, 23]: 0
- S. Flatsedge plant response rating [15, 24]: 0
- S. Flatsedge plant response rating [15, 25]: 0
- Plant response rating, S. Flatsedge [15, 26]: 7
- S. Flatsedge plant response rating [15, 27]: 0
- Plant response rating, S. Flatsedge [15, 28]: 4
- Plant response rating, Ducksalad [16, 21]: 2
- Ducksalad plant response rating [16, 22]: 0
- Plant response rating, Ducksalad (0 to 10 scale, 0 is no effect, 10 is complete control) [16, 23]: 0
- Ducksalad plant response rating [16, 24]: 0
- Ducksalad plant response rating [16, 25]: 0
- Plant response rating, Ducksalad [16, 26]: 3
- Ducksalad plant response rating [16, 27]: 0
- Plant response rating, Ducksalad [16, 28]: 3
